Test systems include A549; COLO 205; HCT-116; HCT-15; HL-60; KM12; NCI-H23; NCI-H460; OVCAR-3; SK-MEL-28; SNB-19; U-251; UACC-257; UO-31; LOX IMVI.
What all share (experiment): growth of human tumour cells (NCI), 48 h

Structures are written as SMILES.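 In this assay, cells in 96-well plates receive the compound at five concentrations for 48 hours. Endpoints are linearly interpolated between the surrounding concentrations. GI50 marks 50% less growth.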 Activity calls are given as the source filed them. No stated cut-off is given here; in the data, active = GI50 up to about 1.1 µM and inactive = higher.

For the molecule `CS(=O)(=O)OCCN1CCN(C(=O)c2ccc(Cl)c3c(Nc4ccc(S(=O)(=O)N=C(N)N)cc4)c4ccccc4nc23)CC1`, the GI50 is > 100 µM (inactive) with A549; > 100 µM (inactive) in the test with COLO 205; > 100 µM (inactive) in the test with HCT-116; above 100 µM with HCT-15; > 100 µM (inactive) with HL-60; > 100 µM (inactive) in the test on KM12. Further, the GI50 in the test on NCI-H23, with NCI-H460, in the test on OVCAR-3, in the test with SK-MEL-28, in the test on SNB-19 and with U-251 was > 100 µM (inactive) throughout. Moreover, the GI50 with UACC-257 and in the test on UO-31 was > 100 µM (inactive) in each case.
For the molecule `CON(C)C(=O)CCCO`, the GI50 was > 100 µM (inactive) with A549; > 100 µM (inactive) with COLO 205; > 100 µM (inactive) in the test with HCT-116; above 100 µM in the test on HCT-15; > 100 µM (inactive) in the test on HL-60; > 100 µM (inactive) in the test on KM12. The GI50 in the test with NCI-H23, in the test with NCI-H460, with OVCAR-3, in the test on SK-MEL-28, in the test with SNB-19 and in the test with U-251 was > 100 µM (inactive) each time. The GI50 in the test with UACC-257 and in the test with UO-31 was > 100 µM (inactive) each time.
Consider `Cn1c2c(c3ccccc31)CCN(CCN1CCN(c3cccc(Cl)c3)CC1)C2=O`, for which the GI50 with A549 is > 100 µM (inactive); in the test with COLO 205, 40.7 µM (inactive); in the test with HCT-116, 40.5 µM (inactive); in the test on HCT-15, 25.8 µM; in the test with HL-60 it was 15.9 µM (inactive); in the test on LOX IMVI it was 57.9 µM (inactive). The GI50 in the test on NCI-H23 is 35.8 µM (inactive); with SK-MEL-28, > 100 µM (inactive); with U-251, > 100 µM (inactive); in the test on UO-31 it was 30.3 µM (inactive).
As to `Cc1c(O)c(=O)ccn1C1OC(CO)C(O)C1O` (stereo not drawn), the GI50 with A549 is > 100 µM (inactive); in the test on COLO 205, > 100 µM (inactive); with HCT-116 it was 62.1 µM (inactive); with HCT-15 it was 68.1 µM; with HL-60, 17.4 µM (inactive); in the test with KM12, > 100 µM (inactive). The GI50 in the test on LOX IMVI is 56.2 µM (inactive); with NCI-H460 it was 59.4 µM (inactive); in the test on OVCAR-3, > 100 µM (inactive); with SK-MEL-28, > 100 µM (inactive); in the test with SNB-19 it was > 100 µM (inactive); in the test on U-251 it was > 100 µM (inactive). Also, the GI50 in the test on UACC-257 and in the test on UO-31 was > 100 µM (inactive) in each case.
Take `C=Cc1ccc(C)[n+](C[Si](C)(C)O[Si](C)(C)C)c1`: the GI50 in the test with A549 is > 100 µM (inactive); in the test on COLO 205, > 100 µM (inactive); with HCT-116, > 100 µM (inactive); with HCT-15 it was above 100 µM; with KM12, > 100 µM (inactive); with LOX IMVI it was > 100 µM (inactive). Besides, the GI50 with NCI-H23, in the test on OVCAR-3, with SK-MEL-28, with SNB-19, with U-251 and in the test on UACC-257 was > 100 µM (inactive) throughout. Also, in the test on UO-31, the GI50 is > 100 µM (inactive).
Regarding `COC(=O)c1nc(N)nc(O)c1CCCCCc1c(O)nc(N)nc1C(=O)OC`, the GI50 in the test on A549 is > 50 µM (inactive); in the test on COLO 205, > 50 µM (inactive); in the test with HCT-15 it was above 50 µM; with HL-60 it was > 50 µM (inactive); in the test on KM12 it was > 50 µM (inactive); in the test on LOX IMVI, > 50 µM (inactive). In addition, the GI50 in the test with NCI-H23, in the test on NCI-H460, with OVCAR-3, in the test on SK-MEL-28, in the test on SNB-19 and in the test on U-251 was > 50 µM (inactive) each time. Moreover, the GI50 in the test on UACC-257 and in the test on UO-31 was > 50 µM (inactive) each time.
For the molecule `Cc1cc2c(ccc3c(C)cc(=O)oc32)o1`, the GI50 in the test on A549 is > 100 µM (inactive); with COLO 205, > 100 µM (inactive); in the test with HCT-116, > 100 µM (inactive); in the test on HCT-15, above 100 µM; in the test on KM12 it was > 100 µM (inactive); in the test with LOX IMVI, > 100 µM (inactive). The GI50 in the test with NCI-H23, in the test with NCI-H460, in the test on OVCAR-3, with SK-MEL-28, in the test with SNB-19 and in the test on U-251 was > 100 µM (inactive) in each case. Also, the results for the GI50 in the test with UACC-257 and with UO-31 were > 100 µM (inactive) and 98.9 µM (inactive), respectively.
On to `C/C(CC(=O)Nc1cc(Cl)c(Cl)cc1Cl)=N\NS(=O)(=O)c1ccc(C)cc1`, for which the GI50 was 45.7 µM (inactive) in the test on A549; 26.8 µM (inactive) with COLO 205; 23 µM (inactive) with HCT-116; 24.1 µM (inactive) in the test with HL-60; 40.3 µM (inactive) with KM12; 39.3 µM (inactive) with LOX IMVI. Further, the GI50 with NCI-H23 was 21.6 µM (inactive); with NCI-H460 it was 38.8 µM (inactive); with OVCAR-3 it was 25.5 µM (inactive); with SK-MEL-28, 34.2 µM (inactive); in the test on U-251, 32 µM (inactive); with UACC-257, 26 µM (inactive). In addition, the GI50 in the test on UO-31 is 21 µM (inactive).
As for `Clc1ccc(Nc2nc3ccccc3nc2-c2cccs2)cc1Cl`, the GI50 is 29.9 µM (inactive) in the test on A549; 26.1 µM (inactive) in the test with COLO 205; 23.4 µM (inactive) in the test on HCT-116; 10.3 µM in the test on HCT-15; 12.2 µM (inactive) in the test on HL-60; 37.8 µM (inactive) with NCI-H23. For the same molecule, the GI50 with NCI-H460 is 22.7 µM (inactive); with OVCAR-3, > 100 µM (inactive); in the test on SK-MEL-28, 28.7 µM (inactive); with SNB-19 it was 36 µM (inactive); with U-251 it was > 10 µM (inactive); in the test with UACC-257 it was 34.4 µM (inactive). Moreover, the GI50 in the test on UO-31 is 34.8 µM (inactive).
In the case of `CCn1c2ccccc2c2ccc3c(c21)C(=O)C=CC3=O`, the GI50 in the test with A549 was 43.6 µM (inactive); in the test on COLO 205, 9.55 µM (inactive); in the test with HCT-116, 4.47 µM (inactive); with HCT-15, 10.4 µM; with HL-60 it was 2.43 µM (inactive); in the test on KM12 it was 14.4 µM (inactive). In addition, the GI50 in the test with NCI-H23 is 22.5 µM (inactive); in the test on NCI-H460 it was 20.2 µM (inactive); in the test with OVCAR-3, 13.5 µM (inactive); with SK-MEL-28, 18.3 µM (inactive); in the test on U-251, 15.9 µM (inactive); in the test on UACC-257, 14.6 µM (inactive). For the same molecule, in the test with UO-31, the GI50 is 10 µM (inactive).
On to `CCN1C(C)=NC2C(=O)c3ccccc3C(=O)C21` (stereo not drawn), for which the GI50 in the test with A549 is 41.6 µM (inactive); in the test with COLO 205 it was 33.5 µM (inactive); in the test with HCT-116, 36.2 µM (inactive); in the test on HCT-15, 57.4 µM; in the test on HL-60, 37.8 µM (inactive); with LOX IMVI, 46.9 µM (inactive). In addition, the GI50 in the test on NCI-H23 is 50.7 µM (inactive); in the test with NCI-H460, 30.1 µM (inactive); in the test on OVCAR-3 it was 27.4 µM (inactive); in the test on SK-MEL-28, > 100 µM (inactive); with SNB-19 it was 81.7 µM (inactive); with U-251 it was > 100 µM (inactive). Also, the GI50 with UACC-257 is 31.2 µM (inactive); in the test with UO-31, > 100 µM (inactive).
For `NC1=NN(c2ccccc2)C(=O)C1C(=O)C(=O)Nc1ccc(Cl)c(Cl)c1` (stereo not drawn), the GI50 in the test with A549 was > 100 µM (inactive); with COLO 205, > 100 µM (inactive); in the test on HCT-116 it was > 100 µM (inactive); in the test with HCT-15 it was 68.7 µM; in the test on HL-60, 86.1 µM (inactive); in the test on KM12 it was > 100 µM (inactive). Moreover, the GI50 with NCI-H23 is > 100 µM (inactive); in the test with NCI-H460 it was > 100 µM (inactive); with OVCAR-3, > 100 µM (inactive); with SK-MEL-28, > 100 µM (inactive); in the test with SNB-19, 1.06 µM (active); with U-251, > 100 µM (inactive). In addition, the GI50 with UACC-257 and in the test on UO-31 was > 100 µM (inactive) each time.
Take `CC1(c2ccccc2)CC(c2cccc([N+](=O)[O-])c2)=NO1` (stereo not drawn): the GI50 with A549 was > 100 µM (inactive); in the test with COLO 205, > 100 µM (inactive); with HCT-116, > 100 µM (inactive); in the test with HCT-15, above 100 µM; with KM12 it was > 100 µM (inactive); in the test with NCI-H23, 89.1 µM (inactive). Moreover, the GI50 is > 100 µM (inactive) with NCI-H460; > 100 µM (inactive) in the test on OVCAR-3; > 100 µM (inactive) in the test on SK-MEL-28; > 100 µM (inactive) with U-251; > 100 µM (inactive) in the test on UACC-257; 82.8 µM (inactive) in the test with UO-31.
As for `COc1ccc2ccnc(Cc3ccc(OCc4ccccc4)c(OC)c3)c2c1`, the GI50 in the test on A549 was 24.4 µM (inactive); in the test with HCT-116, 16.1 µM (inactive); in the test with HCT-15 it was 15.2 µM; in the test with KM12 it was 18 µM (inactive); with NCI-H23 it was 19.8 µM (inactive); in the test with NCI-H460, 18.9 µM (inactive). Further, the GI50 in the test on OVCAR-3 was 17.1 µM (inactive); in the test with SK-MEL-28, 16.7 µM (inactive); with SNB-19, 85.9 µM (inactive); in the test with U-251, 20.9 µM (inactive); in the test on UACC-257, 20.8 µM (inactive); in the test on UO-31 it was 6 µM (inactive).
In the case of `O=C(Nc1ccccc1-c1nc2ccccc2[nH]c1=O)c1ccccc1`, the GI50 with A549 was 25.9 µM (inactive); in the test with COLO 205, > 100 µM (inactive); in the test with HCT-116, 20.1 µM (inactive); with HCT-15, 35.2 µM; in the test with KM12, 28.7 µM (inactive); with LOX IMVI, 24.3 µM (inactive). Also, the GI50 is 33.7 µM (inactive) in the test on NCI-H23; 21.5 µM (inactive) with NCI-H460; 20.3 µM (inactive) with OVCAR-3; 43.5 µM (inactive) in the test on SK-MEL-28; 24.2 µM (inactive) in the test on SNB-19; 23.3 µM (inactive) in the test on U-251. Moreover, the GI50 is 44 µM (inactive) with UACC-257 and 19.6 µM (inactive) in the test on UO-31.

The record behind these values is ChEMBL document CHEMBL1201862, “PubChem BioAssay data set” (2004).
